Key:
Experiment in all cases: radiometric filter-binding kinase assay
HIPK3 (human) = HIPK3 (human) (UniProt Q9H422)
ROCK2 (rat) = conditions: accession and sequence are those of the human protein
PKN2 (human) = PKN2 (human) (UniProt Q16513)
PIM1 (human) = PIM1 (human) (UniProt P11309)
[1] = target: STK11 CAB39 STRADA (human) (UniProt Q9Y376+Q7RTN6+Q15831)
BRSK2 (human) = BRSK2 (human) (UniProt Q8IWQ3)
[2] = system: SGK1 (human), O00141 [S422D]
MINK1 (human) = MINK1 (human) (UniProt Q8N4C8)
MKNK2 (human) = MKNK2 (human) (UniProt Q9HBH9)
MELK (human) = MELK (human) (UniProt Q14680)
PIM3 (human) = PIM3 (human) (UniProt Q86V86)
MAPK11 (human) = MAPK11 (human) (UniProt Q15759)
MAPK9 (human) = MAPK9 (human) (UniProt P45984)
PAK7 (human) = PAK7 (human) (UniProt Q9P286)
AURKB (human) = AURKB (human) (UniProt Q96GD4)
MAPK10 (human) = MAPK10 (human) (UniProt P53779)
MARK2 (human) = MARK2 (human) (UniProt Q7KZI7)
INSR (human) = INSR (human) (UniProt P06213)
NEK2 (human) = NEK2 (human) (UniProt P51955)
PRKACA (human) = PRKACA (human) (UniProt P17612)

Sequence of MARK2 (human) (Q7KZI7 whole entry, looked up): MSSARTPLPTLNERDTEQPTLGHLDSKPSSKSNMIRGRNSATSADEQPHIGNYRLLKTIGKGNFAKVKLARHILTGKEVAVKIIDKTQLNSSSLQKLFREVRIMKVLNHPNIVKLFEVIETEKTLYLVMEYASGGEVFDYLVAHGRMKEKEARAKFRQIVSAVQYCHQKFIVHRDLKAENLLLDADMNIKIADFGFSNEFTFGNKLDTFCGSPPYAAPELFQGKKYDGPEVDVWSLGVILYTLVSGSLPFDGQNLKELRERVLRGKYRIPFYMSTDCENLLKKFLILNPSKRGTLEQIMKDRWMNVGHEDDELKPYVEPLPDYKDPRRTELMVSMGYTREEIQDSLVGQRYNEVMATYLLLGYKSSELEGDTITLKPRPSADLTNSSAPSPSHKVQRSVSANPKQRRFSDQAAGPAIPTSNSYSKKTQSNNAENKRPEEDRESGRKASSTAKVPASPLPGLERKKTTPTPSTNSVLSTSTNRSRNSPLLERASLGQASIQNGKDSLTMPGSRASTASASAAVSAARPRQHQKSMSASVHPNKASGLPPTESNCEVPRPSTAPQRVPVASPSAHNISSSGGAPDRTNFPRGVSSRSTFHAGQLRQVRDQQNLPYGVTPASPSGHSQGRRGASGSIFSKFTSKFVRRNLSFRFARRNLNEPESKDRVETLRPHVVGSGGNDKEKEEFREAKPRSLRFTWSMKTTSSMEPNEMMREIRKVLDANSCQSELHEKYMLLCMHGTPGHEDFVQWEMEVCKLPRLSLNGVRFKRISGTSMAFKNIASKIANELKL
Sequence of NEK2 (human) (P51955 whole entry, looked up): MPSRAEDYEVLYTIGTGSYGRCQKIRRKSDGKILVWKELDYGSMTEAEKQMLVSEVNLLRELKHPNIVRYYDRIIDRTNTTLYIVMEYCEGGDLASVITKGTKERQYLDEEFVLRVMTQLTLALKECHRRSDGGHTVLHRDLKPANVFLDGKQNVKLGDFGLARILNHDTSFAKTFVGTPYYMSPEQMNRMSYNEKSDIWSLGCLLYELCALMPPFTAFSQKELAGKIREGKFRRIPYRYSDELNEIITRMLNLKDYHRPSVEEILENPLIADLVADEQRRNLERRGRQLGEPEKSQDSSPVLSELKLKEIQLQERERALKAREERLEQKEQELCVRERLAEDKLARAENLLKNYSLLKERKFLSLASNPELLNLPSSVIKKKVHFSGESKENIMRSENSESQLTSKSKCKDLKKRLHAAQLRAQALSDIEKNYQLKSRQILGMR
Sequence of MKNK2 (human) (Q9HBH9 whole entry, looked up): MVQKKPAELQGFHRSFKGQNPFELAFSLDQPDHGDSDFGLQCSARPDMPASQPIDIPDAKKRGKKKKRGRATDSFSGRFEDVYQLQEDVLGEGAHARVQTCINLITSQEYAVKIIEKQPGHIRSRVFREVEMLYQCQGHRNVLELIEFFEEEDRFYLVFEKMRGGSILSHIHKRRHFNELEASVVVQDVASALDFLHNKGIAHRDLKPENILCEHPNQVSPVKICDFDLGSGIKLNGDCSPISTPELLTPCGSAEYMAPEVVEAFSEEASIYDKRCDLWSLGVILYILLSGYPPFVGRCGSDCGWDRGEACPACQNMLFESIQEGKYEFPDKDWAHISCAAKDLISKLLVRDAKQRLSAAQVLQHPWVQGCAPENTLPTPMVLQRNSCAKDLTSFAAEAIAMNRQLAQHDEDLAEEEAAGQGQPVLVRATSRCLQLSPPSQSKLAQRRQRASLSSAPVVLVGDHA
Sequence of MAPK10 (human) (P53779 whole entry, looked up): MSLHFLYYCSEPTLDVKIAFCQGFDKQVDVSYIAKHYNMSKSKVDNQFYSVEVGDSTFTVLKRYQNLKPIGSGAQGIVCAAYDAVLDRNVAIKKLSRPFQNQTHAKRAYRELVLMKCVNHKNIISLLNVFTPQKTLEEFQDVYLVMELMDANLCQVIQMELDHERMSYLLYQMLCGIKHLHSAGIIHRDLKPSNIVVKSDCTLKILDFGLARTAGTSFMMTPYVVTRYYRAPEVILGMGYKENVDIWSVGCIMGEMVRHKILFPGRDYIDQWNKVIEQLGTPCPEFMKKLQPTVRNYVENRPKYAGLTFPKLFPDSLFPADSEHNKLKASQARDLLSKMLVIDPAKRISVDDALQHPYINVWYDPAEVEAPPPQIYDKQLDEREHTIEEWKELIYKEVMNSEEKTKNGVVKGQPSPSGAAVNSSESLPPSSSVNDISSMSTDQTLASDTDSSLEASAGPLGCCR
Sequence of STK11 CAB39 STRADA (human) (Q15831 whole entry, looked up): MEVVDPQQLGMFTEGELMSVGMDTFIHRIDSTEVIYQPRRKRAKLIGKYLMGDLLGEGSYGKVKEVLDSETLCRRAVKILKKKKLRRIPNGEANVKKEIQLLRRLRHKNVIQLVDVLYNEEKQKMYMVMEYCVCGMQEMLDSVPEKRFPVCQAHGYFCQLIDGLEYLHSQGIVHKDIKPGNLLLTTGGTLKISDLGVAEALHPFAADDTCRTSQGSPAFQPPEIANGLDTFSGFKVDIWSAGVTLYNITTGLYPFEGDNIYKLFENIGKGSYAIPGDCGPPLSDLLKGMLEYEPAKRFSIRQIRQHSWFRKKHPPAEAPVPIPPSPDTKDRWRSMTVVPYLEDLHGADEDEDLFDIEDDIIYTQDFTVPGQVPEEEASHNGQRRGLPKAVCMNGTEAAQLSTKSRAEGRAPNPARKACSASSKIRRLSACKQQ
Sequence of STK11 CAB39 STRADA (human) (Q7RTN6 whole entry, looked up): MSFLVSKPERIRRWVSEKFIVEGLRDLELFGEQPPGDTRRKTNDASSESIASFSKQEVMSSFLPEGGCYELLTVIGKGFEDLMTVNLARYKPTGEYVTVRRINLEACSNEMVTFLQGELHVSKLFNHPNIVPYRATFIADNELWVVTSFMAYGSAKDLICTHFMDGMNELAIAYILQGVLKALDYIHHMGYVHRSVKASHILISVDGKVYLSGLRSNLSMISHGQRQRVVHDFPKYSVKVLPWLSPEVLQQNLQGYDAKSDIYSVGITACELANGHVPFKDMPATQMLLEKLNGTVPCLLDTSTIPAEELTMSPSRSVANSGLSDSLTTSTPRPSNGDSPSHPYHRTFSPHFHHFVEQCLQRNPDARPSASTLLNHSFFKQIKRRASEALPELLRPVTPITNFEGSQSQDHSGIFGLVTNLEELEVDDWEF
Sequence of STK11 CAB39 STRADA (human) (Q9Y376 whole entry, looked up): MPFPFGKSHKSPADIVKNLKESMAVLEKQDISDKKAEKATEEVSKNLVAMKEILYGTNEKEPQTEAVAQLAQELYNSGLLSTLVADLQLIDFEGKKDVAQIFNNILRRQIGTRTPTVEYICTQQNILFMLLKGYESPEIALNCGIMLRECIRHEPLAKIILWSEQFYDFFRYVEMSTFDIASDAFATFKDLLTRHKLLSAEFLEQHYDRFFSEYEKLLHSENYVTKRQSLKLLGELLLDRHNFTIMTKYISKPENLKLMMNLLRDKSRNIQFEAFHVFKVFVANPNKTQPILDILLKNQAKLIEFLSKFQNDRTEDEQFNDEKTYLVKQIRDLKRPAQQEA
Sequence of INSR (human) (P06213 whole entry, looked up): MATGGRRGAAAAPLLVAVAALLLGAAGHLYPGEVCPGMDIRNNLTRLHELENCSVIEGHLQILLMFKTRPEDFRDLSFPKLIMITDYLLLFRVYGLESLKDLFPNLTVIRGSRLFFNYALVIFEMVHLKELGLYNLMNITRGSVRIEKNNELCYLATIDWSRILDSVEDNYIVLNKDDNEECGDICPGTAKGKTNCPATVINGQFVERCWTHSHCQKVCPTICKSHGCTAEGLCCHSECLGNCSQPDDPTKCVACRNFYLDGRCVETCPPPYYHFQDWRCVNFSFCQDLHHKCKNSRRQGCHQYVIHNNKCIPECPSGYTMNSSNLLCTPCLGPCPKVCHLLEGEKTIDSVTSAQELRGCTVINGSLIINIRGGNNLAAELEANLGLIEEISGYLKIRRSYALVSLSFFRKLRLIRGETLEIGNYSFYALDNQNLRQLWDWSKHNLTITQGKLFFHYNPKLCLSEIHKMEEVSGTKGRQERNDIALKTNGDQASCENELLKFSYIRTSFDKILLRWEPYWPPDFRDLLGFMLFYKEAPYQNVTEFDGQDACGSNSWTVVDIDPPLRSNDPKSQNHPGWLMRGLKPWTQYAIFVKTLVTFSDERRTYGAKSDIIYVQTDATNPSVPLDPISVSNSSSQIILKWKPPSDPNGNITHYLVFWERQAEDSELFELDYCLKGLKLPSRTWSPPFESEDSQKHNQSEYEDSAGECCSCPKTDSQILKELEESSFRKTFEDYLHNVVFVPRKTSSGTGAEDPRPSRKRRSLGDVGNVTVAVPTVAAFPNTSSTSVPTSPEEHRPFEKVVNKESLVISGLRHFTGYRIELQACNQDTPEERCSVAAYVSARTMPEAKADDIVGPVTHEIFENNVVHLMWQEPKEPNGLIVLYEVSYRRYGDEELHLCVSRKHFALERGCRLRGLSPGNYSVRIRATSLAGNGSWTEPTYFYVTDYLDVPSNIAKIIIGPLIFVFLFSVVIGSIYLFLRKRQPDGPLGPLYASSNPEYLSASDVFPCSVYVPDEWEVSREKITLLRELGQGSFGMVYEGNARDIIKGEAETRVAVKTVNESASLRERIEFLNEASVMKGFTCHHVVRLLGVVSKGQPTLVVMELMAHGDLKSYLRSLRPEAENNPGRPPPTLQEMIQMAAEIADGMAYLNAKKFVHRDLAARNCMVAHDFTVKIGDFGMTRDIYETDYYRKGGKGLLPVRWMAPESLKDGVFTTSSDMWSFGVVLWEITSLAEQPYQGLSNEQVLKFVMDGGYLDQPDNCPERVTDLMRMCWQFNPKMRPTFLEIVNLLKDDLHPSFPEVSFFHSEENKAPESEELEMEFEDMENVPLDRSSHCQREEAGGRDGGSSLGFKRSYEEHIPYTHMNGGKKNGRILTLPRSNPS

SMILES: CNc1nc(-c2ccc3c(N)n[nH]c3c2)cc(N2C[C@@H](C(=O)NC3CCCCC3)CC[C@H]2C)n1
- residual activity (HIPK3 (human); compound 0.01 µM): 111%
- residual activity (HIPK3 (human); compound 0.1 µM): 105%
- residual activity (HIPK3 (human); compound 1.0 µM): 106%
- residual activity (ROCK2 (rat); compound 0.01 µM): 96%
- residual activity (ROCK2 (rat); compound 0.1 µM): 92%
- residual activity (ROCK2 (rat); compound 1.0 µM): 70%
- residual activity (PKN2 (human); compound 0.01 µM): 90%
- residual activity (PKN2 (human); compound 0.1 µM): 102%
- residual activity (PKN2 (human); compound 1.0 µM): 82%
- residual activity (PIM1 (human); compound 0.01 µM): 99%
- residual activity (PIM1 (human); compound 0.1 µM): 100%
- residual activity (PIM1 (human); compound 1.0 µM): 98%
- residual activity ([1]; compound 0.01 µM): 104%
- residual activity ([1]; compound 0.1 µM): 124%
- residual activity ([1]; compound 1.0 µM): 100%
- residual activity (BRSK2 (human); compound 0.01 µM): 114%
- residual activity (BRSK2 (human); compound 0.1 µM): 110%
- residual activity ([2]; compound 0.01 µM): 96%
- residual activity ([2]; compound 0.1 µM): 96%
- residual activity ([2]; compound 1.0 µM): 37%
- residual activity (MINK1 (human); compound 0.01 µM): 121%
- residual activity (MINK1 (human); compound 0.1 µM): 110%
- residual activity (MINK1 (human); compound 1.0 µM): 105%
- residual activity (MKNK2 (human); compound 0.01 µM): 91%
- residual activity (MKNK2 (human); compound 0.1 µM): 100%
- residual activity (MKNK2 (human); compound 1.0 µM): 106%
- residual activity (MELK (human); compound 0.01 µM): 115%
- residual activity (MELK (human); compound 0.1 µM): 77%
- residual activity (MELK (human); compound 1.0 µM): 23%
- residual activity (PIM3 (human); compound 0.01 µM): 105%
- residual activity (PIM3 (human); compound 0.1 µM): 112%
- residual activity (PIM3 (human); compound 1.0 µM): 97%
- residual activity (MAPK11 (human); compound 0.01 µM): 113%
- residual activity (MAPK11 (human); compound 0.1 µM): 129%
- residual activity (MAPK11 (human); compound 1.0 µM): 109%
- residual activity (MAPK9 (human); compound 0.01 µM): 117%
- residual activity (MAPK9 (human); compound 0.1 µM): 126%
- residual activity (MAPK9 (human); compound 1.0 µM): 120%
- residual activity (PAK7 (human); compound 0.01 µM): 97%
- residual activity (PAK7 (human); compound 0.1 µM): 101%
- residual activity (PAK7 (human); compound 1.0 µM): 94%
- residual activity (AURKB (human); compound 0.01 µM): 105%
- residual activity (AURKB (human); compound 0.1 µM): 106%
- residual activity (AURKB (human); compound 1.0 µM): 83%
- residual activity (MAPK10 (human); compound 0.01 µM): 106%
- residual activity (MAPK10 (human); compound 0.1 µM): 106%
- residual activity (MAPK10 (human); compound 1.0 µM): 100%
- residual activity (MARK2 (human); compound 0.01 µM): 113%
- residual activity (MARK2 (human); compound 0.1 µM): 114%
- residual activity (MARK2 (human); compound 1.0 µM): 109%
- residual activity (INSR (human); compound 0.01 µM): 101%
- residual activity (INSR (human); compound 0.1 µM): 103%
- residual activity (INSR (human); compound 1.0 µM): 102%
- residual activity (NEK2 (human); compound 0.01 µM): 118%
- residual activity (NEK2 (human); compound 0.1 µM): 118%
- residual activity (NEK2 (human); compound 1.0 µM): 106%
- residual activity (PRKACA (human); compound 0.01 µM): 103%
- residual activity (PRKACA (human); compound 0.1 µM): 111%
- residual activity (PRKACA (human); compound 1.0 µM): 98%
